These results are taken from paper PMC5430738, “Psiguajadials A–K: Unusual Psidium Meroterpenoids as Phosphodiesterase-4 Inhibitors from the Leaves of Psidium guajava” (Scientific Reports, 2017).

A value given as a limit tells only on which side of the number the result lay.

T1 sequence (Q08499 388-715): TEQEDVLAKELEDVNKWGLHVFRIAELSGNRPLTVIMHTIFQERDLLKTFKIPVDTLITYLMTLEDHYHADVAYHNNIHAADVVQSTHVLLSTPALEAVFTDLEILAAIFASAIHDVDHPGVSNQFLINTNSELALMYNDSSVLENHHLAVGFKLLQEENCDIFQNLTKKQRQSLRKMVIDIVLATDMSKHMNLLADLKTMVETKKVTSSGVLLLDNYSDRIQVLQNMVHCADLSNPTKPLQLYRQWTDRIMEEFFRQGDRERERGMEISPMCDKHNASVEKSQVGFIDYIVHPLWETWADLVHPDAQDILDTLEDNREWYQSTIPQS

The test concerns the target T1, PDE4D2 (Homo sapiens, UniProt Q08499).
T1 construct: human PDE4D2 (catalytic domain, residues 86 –413); made in house; host or cells: E. coli BL21 (Codonplus)
Kind of test: PDE4D2 enzymatic inhibition assay (3H-cAMP substrate). The class given is biochemical. Particulars: human PDE4D2 catalytic domain, 25 °C, 15 min, read-out: IC50 against PDE4D2. The source says:
The protocols for expression, purification, and enzymatic assays of PDE4D2 were similar to those we described previously. More details about the experimental procedures are provided in Supplementary S3.
S3. Experimental section Extraction and isolation and PDE4D assay
S3.1. Extraction and isolation […]
S3.2. Expression and purification of PDE4D2 prot ein
subcloned into the expression vector pET15b. All these resultant plasmids were transformed into E.
coli strain BL21 (Codonplus) for over expression. The E. coli cells carrying these plasmids were
grown in LB medium at 37 /g113C to OD600 = 0.7, and then 0.1 mM isopropyl
/g69-D-thiogalactop yranoside was added for further growth at 16 /g113C for 20–40 h. The recombinant
protein was purified by Ni-NTA column (Qiagen).
The enz ymatic activities of PDE4D cat al ytic domain and the inhibition of PDE4D by extracted
reactions were occured in mixture containing 50 mM Tris/HCl (pH 7.5), 10 mM MgCl2, 0.5 mM
DTT at room temperature (25 /g113C) for 15 min. The reactions were terminated by addition of 0.2 M
Zn S O 4 and Ba(OH)2. The reaction product 3H-AMP was precipitated out, while unreacted
3H-cAMP remained in the supernatant. The mechanism was illustrated as shown below (Scheme
S3.2). Radioactivity in the supernatant was measured in 2.5 mL Ultima Gold liquid scintillation
repeated at least three times. The IC 50 values were calculated by nonlinear regression. As a […]
As usually defined, the IC50 is the point on the concentration scale where inhibition reaches its midpoint. Consider `CC1=CCC(C)(C)C=CCC2(C)Oc3c(C=O)c(O)c(C=O)c(O)c3C(c3ccccc3)C2CC1` (single isomer, unassigned; (+)) [Compound 15, (+)-guajadial B], for which the 50% inhibitory concentration (IC50) was above 50 µM.
The value for `CC1=CCC(C)(C)C=CCC2(C)Oc3c(C=O)c(O)c(C=O)c(O)c3C(c3ccccc3)C2CC1` (single isomer, unassigned; (-)) [Compound 14, (−)-guajadial B] was above 50 µM; that for `CC(C)C1CCC(C)C23CCC4(CC(c5ccccc5)c5c(O)c(C=O)c(O)c(C=O)c5O4)C2C13` (stereo not shown) [Compound 1, Psiguajadial A] was 3.11 ± 0.1 µM.
The same measure for `CC(C)C1CCC(C)C23CC4C(c5ccccc5)c5c(O)c(C=O)c(O)c(C=O)c5OC4(C)C2C13` (stereo not shown) [Compound 2, Psiguajadial B]: 5.03 ± 0.33 µM; for `CC1=C2C3CC(C)(C(c4ccccc4)c4c(O)c(C=O)c(O)c(C=O)c4O3)C2C2C(CC1)C2(C)C` (stereo not shown) [Compound 3, Psiguajadial C]: 4.5 ± 0.28 µM; for `C=C1CCC2Cc3c(O)c(C=O)c(O)c(C(=O)c4ccccc4)c3OC2(C)CCC2C1CC2(C)C` (stereo not shown) [Compound 4, Psiguajadial D]: 4.14 ± 0.26 µM.
The same measure for `CC1=CCCC2(C)C(c3ccccc3)c3c(O)c(C=O)c(O)c(C=O)c3OC2C2C(CC1)C2(C)C` (stereo not shown) [Compound 5, Psiguajadial E]: 3.25 ± 0.2 µM; for `CC1(C)CC2C1CCC13CC2(C)CCC1C(c1ccccc1)c1c(O)c(C=O)c(O)c(C=O)c1O3` (stereo not shown) [Compound 6, Psiguajadial F]: 2.63 ± 0.13 µM.
Consider `C=C1CCC2C(c3ccccc3)c3c(O)c(C=O)c(O)c(C=O)c3OC2(C)CCC2C1CC2(C)C` (stereo not shown) [Compound 7, Psiguajadial G], for which the IC50 was determined as 1.34 ± 0.33 µM.
As for `CC(C)C1CCC(C)C2CCC3(C=C12)CC(c1ccccc1)c1c(O)c(C=O)c(O)c(C=O)c1O3` (stereo not shown) [Compound 8, Psiguajadial H], the IC50 was found to be 1.81 ± 0.09 µM.
The value for `CC(C)C1CCC(C)C2CCC3(C=C12)CC(c1ccccc1)c1c(O)c(C=O)c(O)c(C=O)c1O3` (stereo not shown) [Compound 9, Psiguajadial I] was 2.51 ± 0.17 µM.
The same measure for `CC(C)C1CCC(C)C2CC3C(c4ccccc4)c4c(O)c(C=O)c(O)c(C=O)c4OC3(C)C=C12` (stereo not shown) [Compound 10, Psiguajadial J]: 2.53 ± 0.33 µM; for `CC(C)C12CCC3(CC(c4ccccc4)c4c(O)c(C=O)c(O)c(C=O)c4O3)C1C2` (stereo not shown) [Compound 11, Psiguajadial K]: 3.68 ± 0.27 µM.
Take `CC1=CCCC2(C)Oc3c(C=O)c(O)c(C=O)c(O)c3C(c3ccccc3)C2C2C(CC1)C2(C)C` (stereo not shown) [Compound 12, Guajavadial C]: the IC50 amounted to 4.33 ± 0.21 µM.
Take `CC1=CCCC2(C)C(c3ccccc3)c3c(O)c(C=O)c(O)c(C=O)c3OC2C2C(CC1)C2(C)C` (stereo not shown) [Compound 13, psiguadial D]: the IC50 turned out to be 3.42 ± 0.21 µM.
As to `CC1CCC2C(C3C4(C)CCC13Oc1c(C=O)c(O)c(C=O)c(O)c1C4c1ccccc1)C2(C)C` (stereo not shown) [Compound 16, psiguadial A], the IC50 was 7.26 ± 0.41 µM.
The value for `C=C1CCC2Cc3c(O)c(C(=O)c4ccccc4)c(O)c(C=O)c3OC2(C)CCC2C1CC2(C)C` (stereo not shown) [Compound 17, guapsidial A] was 5.61 ± 0.51 µM; that for `C=C1CCC2C(c3ccccc3)c3c(O)c(C=O)c(O)c(C=O)c3OC2(C)CCC2C1CC2(C)C` (stereo not shown) [Compound 18, psidial A] was 1.6 ± 0.09 µM; that for `C=C1CCC2C(c3ccccc3)c3c(O)c(C=O)c(O)c(C=O)c3OC2(C)CCC2C1CC2(C)C` (stereo not shown) [Compound 19, guajadial] was 1.62 ± 0.08 µM.
The same measure for `C=C1CCC2C(c3ccccc3)c3c(O)c(C=O)c(O)c(C=O)c3OC2(C)CCC2C1CC2(C)C` (stereo not shown) [Compound 20, psiguajadial L]: 1.37 ± 0.07 µM; for `CC(C)C1CCC(C)C2CCC3(C=C12)CC(c1ccccc1)c1c(O)c(C=O)c(O)c(C=O)c1O3` (stereo not shown) [Compound 21, Guajadial C]: 2.28 ± 0.11 µM.
As for `CC(C)C1CCC(C)C2CCC3(C=C12)CC(c1ccccc1)c1c(O)c(C=O)c(O)c(C=O)c1O3` (stereo not shown) [Compound 22, Guajadial D], the half-inhibitory concentration (IC50) turned out to be 1.93 ± 0.11 µM.
In the case of `CC(C)C1CCC(C)C2CC3C(c4ccccc4)c4c(O)c(C=O)c(O)c(C=O)c4OC3(C)C=C12` (stereo not shown) [Compound 23, Guajadial E], the IC50 came to 2.73 ± 0.15 µM.
As to `CC(C)C1CCC(C)C2CC3C(c4ccccc4)c4c(O)c(C=O)c(O)c(C=O)c4OC3(C)C=C12` (stereo not shown) [Compound 24, Guajadial F], the IC50 was 2.67 ± 0.17 µM.
The same measure for `CC(C)C12CC3C(c4ccccc4)c4c(O)c(C=O)c(O)c(C=O)c4OC3(C)C1C2` (stereo not shown) [Compound 25, guajavadial A]: 2.01 ± 0.07 µM.
The value for `CC(C)C12CCC3(CC(c4ccccc4)c4c(O)c(C=O)c(O)c(C=O)c4O3)C1C2` (stereo not shown) [Compound 26, guadial A] was 2.7 ± 0.15 µM.
The same measure for `CC1(C)C2CC3C(c4ccccc4)c4c(O)c(C=O)c(O)c(C=O)c4OC3(C)C1C2` (stereo not shown) [Compound 27, guadial B]: above 50 µM; for `CC1(C)C2CCC3(CC(c4ccccc4)c4c(O)c(C=O)c(O)c(C=O)c4O3)C1C2` (stereo not shown) [Compound 28, guadial C]: 17.1 ± 0.96 µM.
